Positions count from the first letter of the chain named. Where a SMILES comes first, the peptide text is derived from it.
How the values were obtained:
[1] = biological target: T1, hTAS1R2 + hTAS1R3 S726A^5.39 (Homo sapiens, UniProt Q7RTX0+Q8TE23, S726A); assay: Calcium response (FLIPR), hTAS1R3 mutant coexpressed with hTAS1R2; format: cell-based; settings: variant S726A^5.39; for Emax: read-out: maximal signal (% of wt)
T1 construct: expressed in transfected cells; host or cells: HEK293T cells stably expressing G16Gust44
T1 sequence (Q7RTX0 21-852 S726A): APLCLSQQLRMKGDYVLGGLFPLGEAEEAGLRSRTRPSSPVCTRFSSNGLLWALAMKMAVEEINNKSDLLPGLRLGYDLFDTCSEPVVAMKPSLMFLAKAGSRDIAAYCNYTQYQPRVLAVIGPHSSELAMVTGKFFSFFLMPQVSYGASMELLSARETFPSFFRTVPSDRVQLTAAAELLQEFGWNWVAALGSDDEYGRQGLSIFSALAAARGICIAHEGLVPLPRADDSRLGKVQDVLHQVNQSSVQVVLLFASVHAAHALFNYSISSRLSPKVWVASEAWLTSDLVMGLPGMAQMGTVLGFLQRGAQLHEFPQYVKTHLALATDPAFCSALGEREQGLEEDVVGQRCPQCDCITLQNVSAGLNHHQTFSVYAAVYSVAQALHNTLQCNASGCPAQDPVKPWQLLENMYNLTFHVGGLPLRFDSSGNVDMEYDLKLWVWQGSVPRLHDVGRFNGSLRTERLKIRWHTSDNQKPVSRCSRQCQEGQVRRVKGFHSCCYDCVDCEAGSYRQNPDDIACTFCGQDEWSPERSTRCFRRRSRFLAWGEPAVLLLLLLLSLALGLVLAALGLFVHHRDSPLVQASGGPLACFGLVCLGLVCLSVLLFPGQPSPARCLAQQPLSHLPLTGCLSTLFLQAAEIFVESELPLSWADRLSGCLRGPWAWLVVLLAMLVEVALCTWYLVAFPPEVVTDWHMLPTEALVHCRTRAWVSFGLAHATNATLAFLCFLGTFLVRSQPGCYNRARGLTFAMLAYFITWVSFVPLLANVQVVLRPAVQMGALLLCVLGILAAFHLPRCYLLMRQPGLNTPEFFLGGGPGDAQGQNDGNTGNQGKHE
T1 sequence (Q8TE23 20-839): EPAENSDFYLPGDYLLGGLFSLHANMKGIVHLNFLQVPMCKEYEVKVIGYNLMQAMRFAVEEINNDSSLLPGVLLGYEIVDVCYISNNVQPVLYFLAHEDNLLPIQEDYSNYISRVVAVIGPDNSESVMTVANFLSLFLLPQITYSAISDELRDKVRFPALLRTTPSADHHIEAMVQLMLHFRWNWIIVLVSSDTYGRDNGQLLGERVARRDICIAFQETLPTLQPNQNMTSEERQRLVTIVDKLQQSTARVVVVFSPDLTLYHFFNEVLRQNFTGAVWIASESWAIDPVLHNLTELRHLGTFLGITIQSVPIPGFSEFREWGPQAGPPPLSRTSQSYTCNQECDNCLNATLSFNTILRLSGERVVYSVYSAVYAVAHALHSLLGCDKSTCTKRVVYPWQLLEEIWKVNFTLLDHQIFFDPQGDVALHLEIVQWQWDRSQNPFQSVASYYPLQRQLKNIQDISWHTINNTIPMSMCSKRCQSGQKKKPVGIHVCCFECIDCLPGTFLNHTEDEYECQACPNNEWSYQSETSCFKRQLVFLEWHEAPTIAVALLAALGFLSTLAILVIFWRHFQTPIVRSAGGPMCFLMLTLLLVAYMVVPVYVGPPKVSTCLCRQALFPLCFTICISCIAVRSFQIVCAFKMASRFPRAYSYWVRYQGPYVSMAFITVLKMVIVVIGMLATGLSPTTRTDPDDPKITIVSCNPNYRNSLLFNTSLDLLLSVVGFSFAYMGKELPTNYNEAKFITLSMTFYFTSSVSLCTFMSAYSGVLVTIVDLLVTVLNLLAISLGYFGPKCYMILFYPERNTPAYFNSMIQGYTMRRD
Protocol: (§1) The cDNAs for TAS1Rs tagged at the C-terminus with the herpes simplex virus glycoprotein D (HSV) were transiently transfected into HEK293T cells stably expressing the chimeric G-protein subunit G16Gust44 [44] using Lipofectamine 2000 (Invitrogen, Carlsbad, CA) according to the manufacturer's protocol. 3–4 hours after transfection, DMEM was replaced by low-glucose DMEM supplemented with GlutaMAX and 10% dialyzed FBS (Invitrogen, Carlsbad, CA). 24 h post transfection, cells were loaded for 1 h with the calcium sensitive dye Fluo4-AM (2 μg/ml in DMEM, Molecular Probes, Carlsbad, CA). […] We monitored calcium mobilization following receptor stimulation with sweet tastants by an automated fluorometric imaging plate reader (FLIPR, Molecular Devices, Sunnyvale, CA). Compounds used as stimuli (Sigma-Aldrich, St. Louis, MO; Merck, Whitehouse Station, NJ) were dissolved in C1 solution. All data were collected from at least three independent experiments carried out in duplicate. The obtained calcium signals were corrected for the response of mock transfected cells and normalized to the fluorescence of cells prior to the application of the stimulus using ΔF/F = (F-F0)/F0.

[2] = biological target: T2, hTAS1R2 + hTAS1R3 W775A^6.48 (Homo sapiens, UniProt Q7RTX0+Q8TE23, W775A); assay: as above; format: cell-based; settings: for EC50 / Emax: variant W775A^6.48; for EC50: (>) EC50 not calculable because saturation is not reached; for Emax: read-out: maximal signal (% of wt)
T2 construct: expressed in transfected cells; host or cells: HEK293T cells stably expressing G16Gust44
T2 sequence (Q8TE23 20-839): T1 sequence (Q8TE23 20-839)
T2 sequence (Q7RTX0 21-852 W775A): T1 sequence (Q7RTX0 21-852 S726A) with A706S, W755A
Protocol: as §1

EC50 [1] | Emax [1] | EC50 [2] | Emax [2] | SMILES | receptor activation ([2]; mutant W775A^6.48, any tested concentration)
900 ± 300 µM | 60 ± 50% | > 3000 µM | 30 ± 41% | COc1ccc(CCC(=O)c2c(O)cc(O[C@@H]3O[C@H](CO)[C@@H](O)[C@H](O)[C@H]3O[C@@H]3O[C@@H](C)[C@H](O)[C@@H](O)[C@H]3O)cc2O)cc1O [NHDC, neohesperidin dihydrochalcone] | –
900 ± 300 µM | 50 ± 2% | 1900 ± 200 µM | 20 ± 30% | COC(=O)[C@H](Cc1ccccc1)NC(=O)[C@@H](N)CC(=O)O [aspartame] (HELM PEPTIDE1{D.F.[CO[*:1]]}$$$$V2.0) | –
> 10000 µM | – | – | – | O=S(=O)(O)NC1CCCCC1 [cyclamate] | could not be activated at any tested concentration
